Like-named read-outs stand apart in the source and are kept apart here.
Assays:
[1] = tested on: isolation-induced aggressiveness in mice; assay: Inhibition of isolation-induced aggressiveness in mice (anti-aggressive and anxiety-relieving activity); type: in vivo; conditions: Mus musculus, oral, isolated mice, 50% reduction of aggressive behavior
Experimental: Prior to carrying out the test, the mice are kept in strict isolation in single cages for a period of 4 weeks. After this period of isolation, mice which have been kept isolated spontaneously attack other mice which are introduced into their cage and had not been previously isolated. The test compounds are orally administered to the isolated mice and after a period of 30 minutes or 60 minutes after application, the dose which leads to a 50% reduction of the aggressive behavior is determined (according to a modified method described by Weischer and Opitz, Arch. int. Pharmacodyn. 195, 252 (1972)). The results which are obtained in this test are a valid indication of the activity of the tested compounds in relieving anxiety and stress-induced tensions.

[2] = tested on: hexobarbital-induced sleep in mice; assay: CNS-depressant properties: prolongation of hexobarbital-induced sleep in mice; type: in vivo; conditions: Mus musculus, 0.5 h, oral, 64 mg/kg hexobarbital i.v. 30 minutes after application, 50% of animals with side-posture 4 times as long as control
Experimental: The test compounds are orally applied to mice. Additionally, a dose of 64 mg/kg of hexobarbital is injected, i.v., into the animals 30 minutes after application of the test compound. The point of time at which the animals lie down on their side and the duration of this side-posture are determined and are compared with the postural behavior of animals which are treated only with hexobarbital. The ED50 is defined as the dose which causes 50% of the animals to maintain the side-wise posture for a period of time which is 4 times as long as the period of time during which the control animals remain in their side-wise lying posture (see J. W. Kemp, M. Tannhaeuser and E. A. Swinyard, Arch. int. Pharmacodyn. 193 (1971), p. 37-47).

[3] = Acute 7-day toxicity in mice (LD50); conditions: mouse, in vivo, white NMRI-mice not fed
Experimental: The acute 7-day-toxicity in white NMRI-mice is determined after administration of a single dose of the test compound per os or i.p. to the mice which had not been fed. The calculation of the LD50 is carried out by probitanalysis by means of electronic data processing (see L. Cavelli-Sforza, Gustav Fischer-Verlag, Stuttgart, (1964), Grundbegriffe der Biometrie, p. 153).

[4] = tested on: pentetrazole-induced convulsions; assay: Anti-convulsive activity against pentetrazole-induced spasms; type: in vivo; conditions: Mus musculus; oral, mice; 100 mg/kg pentetrazole s.c. 60 minutes after application; observed 45 minutes; read-out: Inhibition of Pentetrazole-induced convulsions ED50
Experimental: The protective effect of the test compounds against convulsion is determined after oral application to groups of six (6) mice each. 60 minutes after application of the test compounds, a doses of 100 mg/kg of pentetrazole is subcutaneously injected. The occurrance of clonic and tonic convulsions is observed during a total period of 45 minutes. the protective effect of the test compounds against convulsion is determined by comparison with simultaneously performed tests in control-animals. The effective dose ED50 is calculated from the probitlogarithmic dosage curves (according to a modified method disclosed by J. E. Blum et al, Arzneimittel-Forsch. 23, 377 (1973)).
The results which are obtained according to the above method, provide an indication of the anti-convulsive activity of the test compounds. In the pharmacological art, it is well-known that this anti-convulsive activity in animals is an important criterion for evaluating the clinical tranquilizer activity of compounds (see A. Suria and E. Costa, Journal de Pharmacologie, Suppl. No. 1, 5, 94 (1974) and G. Zbinden and L. O. Randall, Advances in Pharmacol. 5, 257, (1967)). The test results given in Table II show a clear superiority of the compounds according to the present invention as compared to chlordiazepoxide.

[5] = 0.5 h, 30 minutes after application, read-out: Inhibition of isolation-induced aggressiveness in mice ED50 (30')
[6] = 1 h, 60 minutes after application, read-out: Inhibition of isolation-induced aggressiveness in mice ED50 (60')
[7] = ip, single dose i.p., read-out: LD50 i.p.
[8] = po, single dose per os, read-out: LD50 p.o.

Compound | ED50 [1, 5] | ED50 [1, 6] | ED50 [2] | LD50 at 168 h [3, 7] | LD50 at 168 h [3, 8] | ED50 [4]
CN1C(=CC(N)=O)CN=C(c2ccccc2)c2cc(Cl)ccc21 [Compound No. 1, 7-chloro-1-methyl-2-carbamoylmethylene-5-phenyl-1,3-dihydro-2H-1,4-benzodiazepine] | 12.2 mg/kg | 9.6 mg/kg | 3.2 mg/kg | 288 mg/kg | > 1470 mg/kg | 2.4 mg/kg
CN1C(=CC(N)=O)CN=C(c2ccccc2Cl)c2cc(Cl)ccc21 [Compound No. 2, 7-chloro-1-methyl-2-carbamoylmethylene-5-(2'-chlorophenyl)-1,3-dihydro-2H-1,4-benzodiazepine] | 2.2 mg/kg | 3.4 mg/kg | 5 mg/kg | 410 mg/kg | > 1000 mg/kg | 0.1 mg/kg
CN1C(=CC(N)=O)CN=C(c2ccccc2F)c2cc(Cl)ccc21 [Compound No. 3, 7-chloro-1-methyl-2-carbamoylmethylene-5-(2'-fluorophenyl)-1,3-dihydro-2H-1,4-benzodiazepine] | 2.1 mg/kg | 3.9 mg/kg | 1.6 mg/kg | 572 mg/kg | > 1470 mg/kg | 0.4 mg/kg
CN1C(=CC(N)=O)CN=C(c2ccccc2C(F)(F)F)c2cc(Cl)ccc21 [Compound No. 4, 7-chloro-1-methyl-2-carbamoylmethylene-5-(2'-trifluoromethylphenyl)-1,3-dihydro-2H-1,4-benzodiazepine] | 31.1 mg/kg | 31.1 mg/kg | 3.1 mg/kg | 287 mg/kg | > 1470 mg/kg | 0.3 mg/kg
CN1C(=CC(N)=O)CN=C(c2ccccc2Cl)c2cc(Br)ccc21 [Compound No. 5, 7-bromo-1-methyl-2-carbamoylmethylene-5-(2'-chlorophenyl)-1,3-dihydro-2H-1,4-benzodiazepine] | 5.4 mg/kg | 4.6 mg/kg | 1.3 mg/kg | > 1600 mg/kg | > 1470 mg/kg | 0.3 mg/kg
CN1C(=CC(N)=O)CN=C(c2ccccc2F)c2cc(Br)ccc21 [Compound No. 6, 7-bromo-1-methyl-2-carbamoylmethylene-5-(2'-fluorophenyl)-1,3-dihydro-2H-1,4-benzodiazepine] | 4.8 mg/kg | 5.7 mg/kg | 2.6 mg/kg | 574 mg/kg | > 1470 mg/kg | 0.4 mg/kg
CN1C(=CC(N)=O)CN=C(c2ccccc2Cl)c2cc([N+](=O)[O-])ccc21 [Compound No. 7, 7-nitro-1-methyl-2-carbamoylmethylene-5-(2'-chlorophenyl)-1,3-dihydro-2H-1,4-benzodiazepine] |  |  | 2.5 mg/kg |  | > 1470 mg/kg | 1 mg/kg
CNC1=Nc2ccc(Cl)cc2C(c2ccccc2)=[N+]([O-])C1 [comparison, 7-chloro-2-methylamino-5-phenyl-3H-1,4-benzodiazepine-4-oxide, reference compound] | 60 mg/kg | 47 mg/kg | 6 mg/kg | 300 mg/kg | 903 mg/kg | 5 mg/kg

Source: patent US4170649A, “1,4-Benzodiazepine derivatives, pharmaceutical compositions thereof, and process for their preparation” (Kali-Chemie Pharma GmbH, priority 1977, dated 1979)
